Each structure is given as a SMILES string.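 A five-concentration, 48-hour dose response in 96-well plates underlies each endpoint, interpolated linearly between surrounding concentrations. TGI is the concentration that stops growth completely.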 Some results are limits rather than exact numbers.

Test in all cases: growth of human tumour cells (NCI), 48 h
For assay [1], the system named is U251 CNS.
In assay [2] the test system is OVCAR-4 ovarian.
Assay [3] has as its system SK-MEL-5 melanoma.
Assay [4] concerns HL-60(TB) leukemia.
Assay [5] concerns OVCAR-5 ovarian.
Assay [6] relates to MOLT-4 leukemia.
Assay [7] has as its system HT29 colon.
Assay [8] deals with DU-145 prostate.
In assay [9] the test system is CCRF-CEM leukemia.
The subject of assay [10] is M19-MEL melanoma.

For the compound `CC12CC(c3ccccc3O1)C(C(=O)Nc1cccc(F)c1)C(=O)N2` (stereo not drawn), the TGI in assay [1] is > 100 µM; in [2], > 100 µM; in [3], 54.8 µM; in assay [4], > 100 µM; in assay [5], > 100 µM; in [6], 54.2 µM. Further, the TGI in [7], in [8] and in [9] was > 100 µM throughout.

Take `O=CNNC(=O)Nc1ccc(Cl)cc1`: the TGI in assay [1], in assay [2], in assay [3], in assay [4], in assay [5] and in [6] was > 100 µM throughout. Also, the TGI in assay [7], in [8] and in [9] was > 100 µM in each case.

In the case of `CC(C)(C)c1c(C(C)(C)C)c(=O)c1=O`, the TGI in [1], in [2], in [3], in assay [4], in assay [5] and in [6] was > 100 µM throughout. The TGI in [7], in assay [8] and in assay [9] was > 100 µM throughout.

Consider `COC(=O)c1ccc(/C=C2\CCc3ccccc3C2=O)cc1`, for which the TGI in assay [1], in [2], in assay [3], in assay [4], in [5] and in assay [6] was > 100 µM each time. The TGI in assay [7], in [8] and in assay [9] was > 100 µM each time.

Turning to `O=C1CSC2(CC(/C=C/c3ccccc3Br)=NN2c2cccc(S(=O)(=O)O)c2)N1c1nc2ccccc2s1` (stereo not drawn), the TGI in assay [1], in [2], in assay [3], in assay [4], in [5] and in [6] was > 100 µM each time. Also, the TGI in assay [7], in assay [8] and in assay [9] was > 100 µM each time.

`c1ccc(OCCSCCCCCCCCCCSCCOc2ccccc2)cc1`: the TGI in assay [10], in assay [1], in assay [3], in [4], in assay [5] and in [6] was > 100 µM throughout. The TGI in assay [9] was > 100 µM.

Turning to `CC/C(Cl)=N\OC(=O)Nc1ccc(F)cc1F`, the TGI in [1] stood at 55.6 µM; in [2], 34.8 µM; in assay [3], 20.6 µM; in assay [4], 4.31 µM; in assay [5], 35.1 µM; in [6], 4.06 µM. The results for the TGI in [7], in assay [8] and in assay [9] were 51.2 µM, 32.2 µM and 5.11 µM, respectively.

Turning to `COc1ccc(C=Nc2ccc(-c3nc4ccccc4[nH]3)cc2)cc1OC`, the TGI in [1], in [2], in assay [3], in assay [4], in assay [5] and in assay [6] was > 100 µM in each case. For the same compound, the TGI in [7], in [8] and in [9] was > 100 µM in each case.

As for `O=P(O)(O)CN1CCNCCN(CP(=O)(O)O)CCNCC1`, the TGI was > 100 µM in [1]; > 100 µM in [2]; > 42 µM in [3]; 15.2 µM in assay [4]; > 100 µM in [5]; > 100 µM in assay [6]. The TGI in [7], in assay [8] and in assay [9] was > 100 µM each time.

On to `O=S1(=O)OCCOS(=O)(=O)C1Cc1nc2ccccc2[nH]1`, for which the TGI in [1] was > 100 µM; in assay [2] it was > 100 µM; in [3], > 100 µM; in [4], 88.4 µM; in assay [5], > 100 µM; in [6] it was 92.4 µM. Further, the TGI in assay [7], in [8] and in [9] was > 100 µM in each case.

On to `O=C1C=C(N2CCN(c3ccccn3)CC2)C(=O)c2c(O)ccc(O)c21`, for which the TGI in assay [1] was 23 µM; in assay [2] it was 28.2 µM; in assay [3] it was 4.5 µM; in [4], 20.3 µM; in assay [5], > 46.4 µM; in [6], 42.2 µM. The TGI is 31.2 µM in assay [7], > 55.5 µM in assay [8] and > 36.8 µM in assay [9].

With `CC1=C2C(=O)c3ccccc3C(=O)[C@H]2C[C@@H](N2CCCCCC2=O)O1`, the TGI was determined as 50.6 µM in assay [1]; 32.1 µM in [2]; 29.6 µM in [3]; 46.3 µM in [4]; 30.4 µM in assay [5]; 58.5 µM in assay [6]. Besides, the TGI in assay [7] came out at 71.2 µM; in assay [8], 32.3 µM; in assay [9] it was 20.3 µM.

For `COc1ccc(/C=C2\CCC(CNc3ccc(Br)cc3)C2=O)cc1` (stereo not drawn), the TGI in [1], in assay [2], in [3], in [4], in assay [5] and in assay [6] was > 100 µM in each case. The TGI in assay [7], in [8] and in [9] was > 100 µM each time.

For the compound `COC(=O)c1c(OC)cc2cc3c(c(O)c2c1C)C(=O)C1(O)C(=O)C=C(OC)C(OC(=O)CC(C)N)=C1C3=O` (stereo not drawn), the TGI in assay [1] is > 100 µM; in assay [2] it was 90.1 µM; in assay [3], > 100 µM; in assay [4] it was 50.8 µM; in assay [5], > 100 µM; in [6], 76.3 µM. The TGI in [7] is 43.7 µM; in assay [8], > 100 µM; in assay [9], 49.5 µM.

`OC12CCCCCC1(N1CCOCC1)c1ccccc12` (stereo not drawn): the TGI in assay [10], in assay [1], in [2], in [3], in [4] and in assay [5] was > 100 µM in each case. Also, the TGI in [6], in assay [7] and in [9] was > 100 µM throughout.
